Reference: patent publication US11149047B2, “Aryl imidazoles for treatment of cancer” (Aptose Biosciences Inc., priority 2017, dated 2021)

Key:
[1] = test system: γH2AX foci in CAOV3 cells; assay: Immunofluorescence staining of γH2AX foci; type: cell-based, human; conditions: CAOV3, time course, FIG. 2C
Protocol: Cells were harvested and washed with PBS twice, fixed in Z-fix solution (buffered zinc formalin fixatives, Anatech, Inc, Creek, Mich.) and permeabilized and blocked with 0.3% Triton X-100 in PBS containing 5% bovine serum albumin. The cells were then incubated with γ-H2AX antibody (1:250 dilution in 0.3% Triton X-100 in PBS containing 1% bovine serum albumin) overnight followed by three washes. Cells were incubated for 1 h with fluorescent-conjugated secondary antibodies (1:1000 dilution) followed by three washes. Slides were mounted with ProLong Gold antifade reagent with 4′,6-diamidino-2-phenylindole (DAPI) to stain cell nuclei (Molecular Probes). Fluorescence was viewed with Keyence Fluorescent Microscope using a 100× objective and quantitated with Image J software (the National Institutes of Health).
The structure of COMPOUND I is similar to drugs that bind to quadruplex structures in DNA which results in strand breaks; this led to the investigation of whether COMPOUND I caused damage to DNA. The parental Raji cells were treated with 0.5 μM COMPOUND I for increasing periods of time and induction of DNA damage was assessed by accumulation of the phosphorylated forms of ATM and γH2AX measured by Western blot analysis. […]

[2] = test system: MV4-11, EOL1, or KG-1 cells; assay: Detection of reactive oxygen species (molecular sensors, GSH changes); type: cell-based
Source text: In addition, cells harboring BRCA1/2 mutations are hypersensitive to COMPOUND I, further supporting a role for DNA damage in COMPOUND I mechanism of action. COMPOUND I consistently produced upregulation of CDKN1A, which mediates arrest in G0-G1. In addition, CDKN1A can be induced after DNA double-strand breaks to block cell-cycle progression to allow for sufficient time to repair DNA. In combination with CDKN1A induction, COMPOUND I increased KLF4 gene expression in many AML cell lines, which is known to regulate CDKN1A as part of the G1 cell-cycle checkpoint. […] The role of KLF4 in COMPOUND I mechanism of action is of interest for future studies.

KG-1 AML cells = assay: Uptake and efflux assay by mass spectrometry; type: in vitro ADME; conditions: exposed 1 or 6 hours, then drug-free media
Protocol: Cells exposed to COMPOUND I were homogenized in acetonitrile containing 5 ng of deuterated COMPOUND I standard. Samples were analyzed at the UCSD Molecular Mass Spectrometry Facility employing an Agilent 1260 liquid chromatograph (LC) system coupled with a Thermo LCQdeca mass spectrometer using positive ion mode electrospray ionization as the ion source.
Measurement of the kinetics of uptake and efflux of COMPOUND I in KG-1 AML cells determined by mass spectrometry indicated a gradual approach to steady state and a rapid initial efflux, but a very prolonged terminal efflux (FIGS. 20A and 20B). When KG-1 cells were exposed to COMPOUND I for either 1 or 6 hours and then placed in drug-free media, the efflux pattern consisted of a rapid phase occurring during the first 30 minutes followed by a prolonged terminal phase, such that significant amounts of COMPOUND I were retained in KG-1 cells for longer than 24 hours. […] (FIGS. 20C and 20D).

[3] = test system: phosphorylated ATM, γH2AX, cleaved PARP in Raji cells; assay: Western blot of phospho-ATM, γH2AX and cleaved PARP; type: cell-based, human; conditions: 0.5 μM
Protocol: The structure of COMPOUND I is similar to drugs that bind to quadruplex structures in DNA which results in strand breaks; this led to the investigation of whether COMPOUND I caused damage to DNA. The parental Raji cells were treated with 0.5 μM COMPOUND I for increasing periods of time and induction of DNA damage was assessed by accumulation of the phosphorylated forms of ATM and γH2AX measured by Western blot analysis. […] Raji cells have very small nuclei making it difficult to quantify the formation of γH2AX foci, so the human ovarian carcinoma cell line CAOV3 was used for this purpose. […] Evidence of DNA damage was further strengthened by the results of the neutral comet assay which mainly detects DNA double strand breaks (FIG. 2D).

[4] = test system: TP53, phos-CHEK1, γH2AX, MAPK14, MAPK8 in MV4-11 cells; assay: Western blot of DNA damage and cell stress pathways; type: cell-based; conditions: 500 nmol/L
Protocol: Cells were treated as described above. Whole-cell lysates were prepared, separated by SDS-PAGE, and transferred to nitrocellulose membranes. Densitometry was performed using ImageJ or Image Studio Lite Version5.2 software and normalized to the density of GAPDH.
The increase in total protein was concomitant with an increase in phospho-Ser15 and acetyl-K382 (FIG. 12B). TP53 is phosphorylated at Ser15 and Ser20 in response to DNA damage, which reduces MDM2 binding and proteasomal degradation of p53. Furthermore, p53 is acetylated in response to cellular stress, and this modification can further stabilize TP53 protein levels and modulate binding activity. Activation of TP53 can trigger apoptosis through upregulation of proapoptotic factors such as BBC3 (PUMA), PMAIP1 (NOXA), and BAX. […] A concentration-dependent increase in ? H2AX was detected in all AML lines tested, thereby adding further credence to the concept that COMPOUND I triggers the DDR pathway (FIG. 12D).

Structure (SMILES): Cc1[nH]c2ccc(F)cc2c1-c1nc2c3cccnc3c3ncccc3c2[nH]1 [COMPOUND I, 2-(5-fluoro-2-methyl-1H-indol-3-yl)-1H-imidazo[4,5-f][1,10]phenanthroline]
- number of γH2AX foci [1]: increase in the number of foci was detectable at 1 h
- generation of reactive oxygen species [2]: no such species have been detected
- duration of rapid efflux phase (KG-1 AML cells): 30 min
- retention of significant amounts in cells (KG-1 AML cells): > 24 h
- cleavage of PARP ([3]; time course): detected starting at 8 h
- phosphorylated ATM and γH2AX accumulation ([3]; up to 24 h): clear increase in phosphorylated ATM and γH2AX starting at 6 h
- time at which an increase in phos-CHEK1 was detected [4]: 1 h
- time of phos-CHEK1 peak [4]: approximately 4 hours
- MAPK14 and MAPK8 phosphorylation ([4]; 4- to 6-hour treatment): increase in both MAPK14 phos-T180 and MAPK8 phos-Thr183/pTyr185
- DDR marker γH2AX ([4]; by 6 hours): robust increase
- TP53 levels ([4]; 1, 3, and 6 hours): significant increase in TP53 levels
